Laboratory results as given in US8927717B1, “Thiochromeno[2,3-c]quinolin-12-one derivatives, preparation method and application thereof” (National Defense Medical Center, priority 2014, dated 2015).

How the values were obtained:
60 cancer cell lines = experiment: NCI 60-cell screen, SRB, whole panel (mean, delta, range); format: cell-based; settings: 10^−5 molar, 48 hours, SRB; for Growth percent, Delta: delta over the cell panel; for Growth percent, Range: range over the cell panel
HOP-62 = format: cell-based; settings: Non-small cell lung cancer; 10^−5 molar; 48 hours; SRB

Row | SMILES | melting point | Growth percent, Delta (60 cancer cell lines) [%] | Growth percent, Range (60 cancer cell lines) [%] | Growth percent HOP-62 (HOP-62) [%]
1 | CCCCNc1nc2ccccc2c2c(=O)c3cc(Cl)ccc3sc12 [Compound N4, 6-(Butylamino)-10-chloro-12H-thiochromeno[2,3-c]quinolin-12-one] | 147 to 149 °C |  |  | 
2 | O=c1c2cc(Cl)ccc2sc2c(N3CCC(CCCC4CCNCC4)CC3)nc3ccccc3c12 [Compound 19, 10-Chloro-6-(4-(3-(piperidin-4-yl)propyl)piperidin-1-yl)-12H-thiochromeno[2,3-c]quinolin-12-one] | 164 to 165 °C |  |  | 
3 | COc1ccccc1CNc1nc2ccccc2c2c(=O)c3cc(Cl)ccc3sc12 [Compound N28, 10-Chloro-6-((2-methoxybenzyl)amino)-12H-thiochromeno[2,3-c]quinolin-12-one] | 223 to 224 °C |  |  | 
4 | O=c1c2cc(Cl)ccc2sc2c(N3CCOCC3)nc3ccccc3c12 [Compound 13, 10-Chloro-6-morpholino-12H-thiochromeno[2,3-c]quinolin-12-one] | 217 to 218 °C | 50.85 | 79.17 | 
5 | O=c1c2cc(Cl)ccc2sc2c(NN3CCCCC3)nc3ccccc3c12 [Compound N34, 10-Chloro-6-(piperidin-1-ylamino)-12H-thiochromeno[2,3-c]quinolin-12-one] | 180 to 181 °C |  |  | 
6 | CCN1CCN(c2nc3ccccc3c3c(=O)c4cc(Cl)ccc4sc23)CC1 [Compound 9, 10-Chloro-6-(4-ethylpiperazin-1-yl)-12H-thiochromeno[2,3-c]quinolin-12-one] | 196 to 198 °C |  |  | 
7 | O=C(O)c1c(Sc2ccc(Cl)cc2)c(O)nc2ccccc12 [Compound 2, 3-((4-Chlorophenyl)thio)-2-hydroxyquinoline-4-carboxylic acid] | 306 to 308 °C | 33.20 | 55.29 | 
8 | O=c1c2cc(Cl)ccc2sc2c(NCC3CCCCC3)nc3ccccc3c12 [Compound N24, 10-Chloro-6-((cyclohexylmethyl)amino)-12H-thiochromeno[2,3-c]quinolin-12-one] | 165 to 166 °C |  |  | 
9 | O=c1c2cc(Cl)ccc2sc2c(NCc3ccccn3)nc3ccccc3c12 [Compound N26, 10-Chloro-6-((pyridin-2-ylmethyl)amino)-12H-thiochromeno[2,3-c]quinolin-12-one] | 187 to 189 °C |  |  | 
10 | O=c1c2cc(Cl)ccc2sc2c(N3CCN(CCO)CC3)nc3ccccc3c12 [Compound 10, 10-Chloro-6-(4-(2-hydroxyethyl)piperazin-1-yl)-12H-thiochromeno[2,3-c]quinolin-12one] | 211 to 213 °C | 48.59 | 83.73 | 
11 | O=c1c2cc(Cl)ccc2sc2c(N3CCN(c4ccccc4)CC3)nc3ccccc3c12 [Compound 12, 10-Chloro-6-(4-phenylpiperazin-1-yl)-12H-thiochromeno[2,3-c]quinolin-12-one] | 236 to 237 °C | 35.45 | 60.10 | 
12 | CN(C)c1nc2ccccc2c2c(=O)c3cc(Cl)ccc3sc12 [Compound 6, 10-Chloro-6-dimethylamino-12H-thiochromeno[2,3-c]quinolin-12-one] | 194 to 195 °C | 65.30 | 93.93 | 
13 | CC(C)CNc1nc2ccccc2c2c(=O)c3cc(Cl)ccc3sc12 [Compound N5, 10-Chloro-6-isobutylamino-12H-thiochromeno[2,3-c]quinolin-12-one] | 159 to 160 °C |  |  | 
14 | O=c1c2cc(Cl)ccc2sc2c(N3CCC(N4CCCCC4)CC3)nc3ccccc3c12 [Compound 18, 6-([1,4′-Bipiperidin]-1′-yl)-10-chloro-12H-thiochromeno[2,3-c]quinolin-12-one] | 187 to 189 °C |  |  | 
15 | O=c1c2cc(Cl)ccc2sc2c(N3CCSCC3)nc3ccccc3c12 [Compound 14, 10-Chloro-6-thiomorpholino-12H-thiochromeno[2,3-c]quinolin-12-one] | 219 to 220 °C |  |  | 
16 | O=C1CCCCN1c1nc2ccccc2c2c(=O)c3cc(Cl)ccc3sc12 [Compound 21, 10-chloro-6-(2-oxopiperidin-1-yl)-12H-thiochromeno[2,3-c]quinolin-12-one] | 258 to 261 °C |  |  | 
17 | O=c1c2cc(Cl)ccc2sc2c(O)nc3ccccc3c12 [Compound 4, 10-Chloro-6-hydroxy-12H-thiochromeno[2,3-c]quinolin-12-one] | > 410 °C | 30.54 | 50.31 | 
18 | CCCNc1nc2ccccc2c2c(=O)c3cc(Cl)ccc3sc12 [Compound N3, 10-Chloro-6-propylamino-12H-thiochromeno[2,3-c]quinolin-12-one] | 178 to 179 °C |  |  | 
19 | O=c1c2cc(Cl)ccc2sc2c(NC3Cc4ccccc4C3)nc3ccccc3c12 [Compound N20, 10-Chloro-6-((2,3-dihydro-1H-inden-2-yl)amino)-12H-thiochromeno[2,3-c]quinolin-12-one] | 251 to 252 °C |  |  | 
20 | COc1ccc(CNc2nc3ccccc3c3c(=O)c4cc(Cl)ccc4sc23)cc1OC [Compound N29, 10-Chloro-6-((3,4-dimethoxybenzyl)amino)-12H-thiochromeno[2,3-c]quinolin-12-one] | 251 to 252 °C |  |  | 
21 | O=c1c2cc(Cl)ccc2sc2c(NCc3cccs3)nc3ccccc3c12 [Compound N23, 10-Chloro-6-((thiophen-2-ylmethyl)amino)-12H-thiochromeno[2,3-c]quinolin-12-one] | 178 to 180 °C |  |  | 
22 | O=c1c2cc(Cl)ccc2sc2c(N3CCC(Cc4ccccc4)CC3)nc3ccccc3c12 [Compound 17, 6-(4-Benzylpiperidin-1-yl)-10-chloro-12H-thiochromeno[2,3-c]quinolin-12-one] | 184 to 185 °C |  |  | 
23 | O=c1c2cc(Cl)ccc2sc2c(N3CCC(O)CC3)nc3ccccc3c12 [Compound 16, 10-Chloro-6-(4-hydroxypiperidin-1-yl)-12H-thiochromeno[2,3-c]quinolin-12-one] | 224 to 225 °C |  |  | 
24 | O=c1c2cc(Cl)ccc2sc2c(NC3CCN(Cc4ccccc4)CC3)nc3ccccc3c12 [Compound N22, 6-((1-Benzylpiperidin-4-yl)amino)-10-chloro-12H-thiochromeno[2,3-c]quinolin-12-one] | 194 to 196 °C |  |  | 
25 | NC(N)=Nc1nc2ccccc2c2c(=O)c3cc(Cl)ccc3sc12 [Compound N33, 2-(10-Chloro-12-oxo-12H-thiochromeno[2,3-c]quinolin-6-yl)guanidine] | 370 °C (dec.) |  |  | 
26 | CN1CCN(c2nc3ccccc3c3c(=O)c4cc(Cl)ccc4sc23)CC1 [Compound 8, 10-Chloro-6-(4-methylpiperazin-1-yl)-12H-thiochromeno[2,3-c]quinolin-12-one] | 212 to 214 °C | 68.64 | 92.74 | 
27 | COc1nc2ccccc2c2c(=O)c3cc(Cl)ccc3sc12 [Compound 5, 10-Chloro-6-methoxy-12H-thiochromeno[2,3-c]quinolin-12-one] | 227 to 228 °C | 39.82 | 61.02 | 96.64
28 | O=c1c2cc(Cl)ccc2sc2c(N3CCCCC3)nc3ccccc3c12 [Compound 15, 10-Chloro-6-(piperidin-1-yl)-12H-thiochromeno[2,3-c]quinolin-12-one] | 187 to 188 °C |  |  | 
29 | O=c1c2cc(Cl)ccc2sc2c(N3CCCC3)nc3ccccc3c12 [Compound 20, 10-Chloro-6-(pyrrolidin-1-yl)-12H-thiochromeno[2,3-c]quinolin-12-one] | 170 to 171 °C |  |  | 
